Test results as given in US7842805B2, “Pharmaceutical compounds as activators of caspases and inducers of apoptosis and the use thereof” (Myrexis, Inc., priority 2005, dated 2010).

Key:
T-47D [1] = experiment: Caspase cascade activation assay (Ac-DEVD-R110 fluorogenic substrate); format: cell-based, Human; details: T-47D (24 hr); for EC50: Homo sapiens, T47D, read-out: Caspase potency EC50; for Caspase activity (Ratio): ratio of net RFU of test compound to control
Experimental: Human breast cancer cell lines T-47D and DLD-1 were grown according to media component mixtures designated by American Type Culture Collection+10% FCS (Invitrogen Corporation), in a 5% CO2-95% humidity incubator at 37° C. T-47D and DLD-1 cells were maintained at a cell density between 50 and 80% confluency at a cell density of 0.1 to 0.6×10^6 cells/mL. Cells were harvested at 600×g and resuspended at 0.65×10^6 cells/mL into appropriate media+10% FCS. An aliquot of 22.5 μL of cells was added to a well of a 384-well microtiter plate containing 2.5 μL of a 10% DMSO in RPMI-1640 media solution containing 0.16 to 100 μM of benzo[d][1,2,3]triazin-4-yl-(4-methoxyphenyl)-methyl-amine or other test compound (0.016 to 10 μM final). An aliquot of 22.5 μL of cells was added to a well of a 384-well microtiter plate containing 2.5 μL of a 10% DMSO in RPMI-1640 media solution without test compound as the control sample. […] After incubation, the samples were removed from the incubator and 25 μL of a solution containing 14 μM of N—(Ac-DEVD)-N′-ethoxycarbonyl-R110 fluorogenic substrate (Cytovia, Inc.; WO99/18856), 20% sucrose (Sigma), 20 mM DTT (Sigma), 200 mM NaCl (Sigma), 40 mM Na PIPES buffer pH 7.2 (Sigma), and 500 μg/mL lysolecithin (Calbiochem) was added. The samples were mixed by agitation and incubated at room temperature. Using a fluorescent plate reader (Model SPECTRAfluor Plus, Tecan), an initial reading (T=0) was made approximately 1-2 min after addition of the substrate solution, employing excitation at 485 nm and emission at 530 nm, to determine the background fluorescence of the control sample. After the 3 h incubation, the samples were read for fluorescence as above (T=3 h).
The Relative Fluorescence Unit values (RFU) were used to calculate the sample readings as follows: RFU(T=3h)−Control RFU(T=0)=Net RFU(T=3h)
The activity of caspase cascade activation was determined by the ratio of the net RFU value for benzo[d][1,2,3]triazin-4-yl-(4-methoxy-phenyl)-methyl-amine or other test compounds to that of control samples. The EC50 (nM) was determined by a sigmoidal dose-response calculation (Prism 3.0, GraphPad Software Inc.).

H1299 = experiment: Inhibition of cell proliferation (GI50, CellTiter-Glo); format: cell-based; details: Homo sapiens, NCI-H1299; H1299 cells, 48 h
Experimental: (§1) T-47D, HT29, H1299, MX-1 and MDAMB435 cells were grown and harvested as in Example 29. An aliquot of […] of cells (4.4×10^4 cells/mL) was added to a well of a 96-well microtiter plate containing 5 μL of a 10% DMSO in RPMI-1640 media solution containing 10 nM to 100 μM of benzo[d][1,2,3]triazin-4-yl-(4-methoxy-phenyl)methyl-amine (1 nM to 10 μM final). An aliquot of 45 μL of cells was added to a well of a 96-well microtiter plate containing 5 μL of a 10% DMSO in RPMI-1640 media solution without compound as the control sample for maximal cell proliferation (LMax). The samples were mixed by agitation and then incubated at 37° C. for 48 h in a 5% CO2-95% humidity incubator. After incubation, the samples were removed from the incubator and 25 μL of CellTiter-Glo™ reagent (Promega) was added. The samples were mixed by agitation and incubated at room temperature for 10-15 min. Plates were then read using a luminescent plate reader (Model SPECTRAfluor Plus, Tecan) to give Ltest values.
(§2) Baseline for GI50 (dose for 50% inhibition of cell proliferation) of initial cell numbers was determined by adding an aliquot of 45 μL of cells or 45 μL of media, respectively, to wells of a 96-well microtiter plate containing 5 μL of a 10% DMSO in RPMI-1640 media solution. The samples were mixed by agitation and then incubated at 37° C. for 0.5 h in a 5% CO2-95% humidity incubator. After incubation, the samples were removed from the incubator and 25 μL of CellTiter-Glo™ reagent (Promega) was added. The samples were mixed by agitation and incubated at 37° C. for 10-15 min at room temperature in a 5% CO2-95% humidity incubator. Fluorescence was read as above, (Lstart) defining luminescence for initial cell number used as baseline in GI50 determinations.
(§3) GI50 (dose for 50% inhibition of cell proliferation) is the concentration where [(LTest−Lstart)/(LMax−Lstart)]=0.5.

T-47D [2] = experiment: as above; format: cell-based; details: Homo sapiens, T47D; T-47D cells, 48 h
Experimental: as §1, §2, §3

MDAMB435 = experiment: as above; format: cell-based; details: Homo sapiens, MDA-MB-435; MDAMB435 cells, 48 h
Experimental: as §1, §2, §3

HT29 = experiment: as above; format: cell-based; details: Homo sapiens, HT-29; HT29 cells, 48 h
Experimental: as §1, §2, §3

MX-1 = experiment: as above; format: cell-based; details: Homo sapiens, MX1; MX-1 cells, 48 h
Experimental: as §1, §2, §3

EC50 (T-47D [1]) [nM] | GI50 (H1299) [nM] | GI50 (T-47D [2]) [nM] | GI50 (MDAMB435) [nM] | GI50 (HT29) [nM] | SMILES | Caspase activity (Ratio) (T-47D [1]) | GI50 (MX-1) [nM]
106 | 106 | 120 | 62 | 200 | COc1ccc(N(C)c2nncc3ccccc23)cc1 [Example 2, (4-Methoxy-phenyl)-methyl-phthalazin-1-yl-amine] | 11.1 | 52
16 | 40 | 50 | 7 | 50 | COc1ccc(N(C)c2nnnc3ccccc23)cc1 [Example 1, Benzo[d][1,2,3]triazin-4-yl-(4-methoxy-phenyl)-methyl-amine] | 9.3 | 50
